Patent US10548883B2, “Benzotriazole-derived α and β-unsaturated amide compound used as TGF-β RI inhibitor” (GENFLEET THERAPEUTICS (SHANGHAI) INC., priority 2016, dated 2020)

Tests used:
TGF-βRI = biological target: T1, TGF-βRI (Homo sapiens, UniProt P36897); test: Test of inhibitory activity of TGFβ-RI in vitro; assay type: biochemical; settings: 10 μM ATP
T1 sequence (P36897 34-503): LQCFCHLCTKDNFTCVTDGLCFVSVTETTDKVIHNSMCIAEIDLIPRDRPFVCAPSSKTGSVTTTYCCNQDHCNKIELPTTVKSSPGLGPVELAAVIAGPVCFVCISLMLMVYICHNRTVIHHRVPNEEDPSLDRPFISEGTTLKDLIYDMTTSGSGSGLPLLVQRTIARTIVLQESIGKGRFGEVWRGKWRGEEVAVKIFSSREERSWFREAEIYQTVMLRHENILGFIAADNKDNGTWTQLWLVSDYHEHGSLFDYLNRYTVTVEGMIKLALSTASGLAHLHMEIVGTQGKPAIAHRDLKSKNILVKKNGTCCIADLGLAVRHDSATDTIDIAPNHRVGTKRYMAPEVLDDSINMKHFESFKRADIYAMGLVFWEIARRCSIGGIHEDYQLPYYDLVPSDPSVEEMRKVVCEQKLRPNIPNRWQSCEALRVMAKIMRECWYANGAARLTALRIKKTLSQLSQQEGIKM
Procedure: i) Test compound: the IC50 was determined by diluting into 10 gradient points with each gradient by three-fold dilution and with a starting concentration of 5 μM.
ii) The IC50 of reference compound LDN193189 was determined by diluting into 10 gradient points with each gradient by three-fold dilution and with a starting concentration of 20 μM.
iii) The reaction system contains 10 μM ATP.
iv) Calculate the IC50 value by curve fitting when the percentage of enzyme activity (compared to the solvent group) is below 65% at the highest concentration of the sample.

[1] = test system: mouse breast cancer 4T1 cells; test: Tumor cell metastasis inhibition in BALB/c mouse orthotopic transplantation model of mouse breast cancer 4T1 cells; assay type: in vivo; settings: 75 mg/kg PO once a day × 32
Procedure: Fluorescently labeled mouse breast cancer 4T1-Luc cells were expanded in vitro. Before the cells were collected, the mice were anesthetized with intraperitoneal injection of sodium pentobarbital. After anesthetized mice were fixed, the abdominal skin was disinfected with 70% alcohol. 100 uL of phosphate buffer (containing 0.5×10^6 4T1-luc2 cells) was inoculated into the left side of the fourth pair of abdominal mammary fat pads in mice, and the incision was sutured to disinfect the skin. The animals are kept warm with a warm blanket, observed until they wake up and put back in their cages. 0.1 mg/kg buprenorphine for pain relief was subcutaneously injected 30 min before surgery and 6 hours after surgery.
On the third day after modeling, the animals were subjected to bioluminescence detection by infrared data imaging, randomly grouped according to the fluorescence values, and administered according to the following experimental protocol, see Table 5.
To observe the inhibitory effect of embodiment 1 on tumor growth and metastasis, the experimental endpoint was designed to be 30-35 days after administration, with reference to historical data of the model. At the end of the experiment, the in situ tumor and various organ tissues were dissected, the tumor was weighed, and the fluorescence intensity of each organ was detected by IVIS fluorescence. Growth inhibition of orthotopic tumors can be compared by the weight of the in situ tumor in the experimental endpoint, and the inhibition curve is generated from the tumor volume measurement data twice a week during the experiment. The inhibition of tumor metastasis was determined by the presence or absence of fluorescence detection of each organ and the analysis of relative fluorescence intensity.
At the end of the experiment, the tumor weight will be detected and the relative tumor growth rate T/C (%) will be calculated; the tumor volume is calculated as: V=0.5a×b^2, and a and b represent the long and short diameters of the tumor, respectively. At the same time, the lung, liver, spleen, kidney, intestine and left upper limb were stripped, and fluorescence was detected to determine whether there was metastasis and metastasis intensity and ratio.
The antitumor effect of the compound was evaluated by the tumor growth inhibition rate TGI (%) or the relative tumor growth rate T/C (%).
Calculation of TGI (%): TGI (%)=[(1−mean tumor volume at the end of administration of a treatment group−mean tumor volume at the start of administration of the treatment group))/(mean tumor volume at the end of treatment of the solvent control group−mean tumor volume at the start of administration of the solvent control group)]×100%.
Relative tumor growth rate T/C (%) calculation: T/C(%)=Tt(treatment group)/Ct(control group)×100%, Tt is the average tumor volume at a certain measurement, and Ct takes the same day data.
The experimental results were statistically analyzed using one-way ANOVA. If there is a significant difference in F values, multiple comparisons should be made after ANOVA analysis. All data in this experiment were analyzed using SPSS 17.0. A significant difference was considered at p<0.05.
At the end of the experiment, each organ tissue was peeled off, and fluorescence imaging and fluorescence intensity value recording were measured by IVIS for 40 sec exposure within 8 min. The fluorescence imaging results of the tested tissues of the 10 animals excised by the maximum and minimum values are shown in Table 6.
According to the experimental end point, the fluorescence intensity of each group of organs was normalized by the control group, and the relative fluorescence intensity ratio of each group of organs was obtained. The ratio reflects the level of metastatic intensity on the corresponding organs.

[2] = animals with metastasis/animals in group
[3] = average organ fluorescence relative to control group

Cc1cccc(-c2nn3c(c2-c2ccc4ncnn4c2/C=C/C(N)=O)CCC3)n1 [Embodiment 1]
IC50 (TGF-βRI): 1 to 50 nM | Inhibition of metastasis of 4T1 (conclusion) [1]: significantly inhibited the metastasis of 4T1 in liver, spleen, kidney and intestine | Metastasis rate, intestine [1, 2]: 60% | Metastasis rate, kidney [1, 2]: 20% | Metastasis rate, liver [1, 2]: 50% | Metastasis rate, lung [1, 2]: 100% | Metastasis rate, spleen [1, 2]: 0% | Metastasis rate, upper limb [1, 2]: 90% | Metastasis level, intestine [1, 3]: 1% | Metastasis level, kidney [1, 3]: 67% | Metastasis level, liver [1, 3]: 10% | Metastasis level, lung [1, 3]: 9% | Metastasis level, spleen [1, 3]: 0% | Metastasis level, upper limb [1, 3]: 12%
